Where “and” joins values, the source holds several entries; their conditions need not be identical. Equal entries are not always repeated.
Columns and labels:
human α-thrombin = human α-thrombin (Homo sapiens, UniProt P00734); assay: Protease inhibition, Ki for human α-thrombin (fluorogenic substrate Z-Gly-Gly-Arg-AMC); format: biochemical; details: replicates R1-R3
Outline: (§1)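 Ki values come from Cheng–Prusoff correction of IC50, itself fitted by four-parameter logistic regression of activity versus a no-peptide control. Assays used 2 nM human or 3 nM rat thrombin, 50 μM Z-Gly-Gly-Arg-AMC, 30 min kinetic fluorescence at 25 °C.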

rat α-thrombin = molecular target: T1, rat α-thrombin (Rattus norvegicus, UniProt P18292); assay: Protease inhibition, Ki for rat α-thrombin (fluorogenic substrate Z-Gly-Gly-Arg-AMC); format: biochemical; details: replicates R1-R3
T1 construct: rat α-thrombin (Molecular Innovations) were used at final concentrations of 2 nM and 3 nM; purchased Molecular Innovations
Outline: as §1

porcine pepsin = molecular target: T2, porcine pepsin (Sus scrofa, UniProt P00791); assay: Peptide stability in simulated gastric fluid (SGF); format: in vitro ADME; details: for SGF stability, Residual peptide Average / SGF stability, Residual peptide: after 8 h vs 0 h (TIC); for SGF stability, Residual peptide Average: average of R1-R3; for SGF stability, Residual peptide: single replicates R1-R3; for remaining at 8 h: simulated gi fluid, 37 °C, pH 1.2, read-out: Proteolytic stability: SGF (8 h) % remaining
T2 construct: 0.32 g of porcine pepsin (Sigma-Aldrich, P7125) was dissolved under gentle agitation; purchased Sigma-Aldrich P7125
Procedure: (§2) Simulated gastric and intestinal fluids were prepared according to the States Pharmacopeia specifications (Test Solutions, United States Pharmacopeia 35, NF 30, 2012). SGF: 0.2 g of sodium chloride was dissolved in 50 ml of water, and the pH was adjusted to 1.2 by addition of 0.7 ml of 10 M hydrochloric acid. Then, 0.32 g of porcine pepsin (Sigma-Aldrich, P7125) was dissolved under gentle agitation, and the volume was filled up to 100 ml with Milli-Q water. SIF: 0.68 g of monobasic potassium phosphate was dissolved in 25 ml of Milli-Q water, and the pH was adjusted to 6.8 by adding 7.7 ml of a 0.2 M sodium hydroxide solution. Next, 1 g of porcine pancreatin (Sigma-Aldrich, P3292) was added under gentle agitation, and the volume was adjusted to 100 ml with Milli-Q water to afford a fine suspension. To test the stability in simulated gastrointestinal fluids, 396 μl of SGF or SIF was pre-heated at 37 °C for 10 min, and 4 μl of a 1 mM peptide solution in DMSO was added. […] Supernatant was analyzed by LC–MS to measure the peptide concentrations at the different timepoints. Residual peptide was calculated by normalizing the concentrations measured at T1 to T0.

[1] = Peptide stability in simulated intestinal fluid (SIF); format: in vitro ADME, porcine; details: simulated gi fluid; 8 h, 37 °C, pH 6.8; read-out: Proteolytic stability: SIF (8 h) % remaining
Procedure: as §2

porcine pancreatin = assay: as above; format: in vitro ADME; details: after 8 h vs 0 h (TIC); for SIF stability, Residual peptide Average: average of R1-R3
Procedure: as §2

[2] = Passive artificial membrane permeability (PAMPA); details: for PAMPA permeability: % permeability: 50 μM, 12–18 h, acceptor concentration relative to equilibrium; for Papp at 50 μM / Permeability% Average / Permeability% R1 / Permeability% R3: PAMPA; for Papp at 50 μM: pH 7.4; for Permeability% Average: average of R1-R3; for Permeability% R1: replicate R1; for Permeability% R1 / Permeability% R3: TIC of top well sample relative to sample at theoretical equilibrium; for Permeability% R3: replicate R3
[3] = Metabolic stability in rat liver microsomes (RLMs); details: rat, microsomes
[4] = peptide 1.33E+02 uM, slope of proteolytic substrate cleavage over time
[5] = CL (ul/min/mg protein) R1, RLM CL, replicate R1
[6] = CL (ul/min/mg protein) R2, RLM CL, replicate R2
[7] = CL (ul/min/mg protein) R3, RLM CL, replicate R3
[8] = Half Life (min) R1, RLM metabolic stability, replicate R1, 0-60 min
[9] = Half Life (min) R2, RLM metabolic stability, replicate R2, 0-60 min
[10] = Half Life (min) R3, RLM metabolic stability, replicate R3, 0-60 min
[11] = Metabolic stability: Half life T1/2 (min), RLMs, mean and SD, three measurements
[12] = Metabolic stability: RLM CL (ul/min/mg), RLMs, mean and SD, three measurements

T2 sequence (P00791 60-385): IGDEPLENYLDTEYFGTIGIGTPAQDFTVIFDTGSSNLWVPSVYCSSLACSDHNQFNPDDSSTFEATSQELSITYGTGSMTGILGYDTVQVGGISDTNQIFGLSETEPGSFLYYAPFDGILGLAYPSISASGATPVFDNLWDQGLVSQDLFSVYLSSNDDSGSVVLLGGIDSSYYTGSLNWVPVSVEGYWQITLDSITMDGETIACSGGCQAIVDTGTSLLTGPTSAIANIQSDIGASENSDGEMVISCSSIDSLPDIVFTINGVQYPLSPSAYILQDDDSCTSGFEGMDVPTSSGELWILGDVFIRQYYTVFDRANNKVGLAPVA

O=C1CCSCc2cccc(n2)CSCCNC(=O)[C@H](CO)NC(=O)[C@@H](NC(=O)c2ccc(Cl)s2)CN1 [compound 17]
Human alpha thrombin inhibition, slope normalized to DMSO (human α-thrombin; peptide 1.02E-03 uM): 90.3 and 94.2 and 97.4
Human alpha thrombin inhibition, slope normalized to DMSO (human α-thrombin; peptide 1.04E+00 uM): 86.6 and 86.7 and 88.9
Human alpha thrombin inhibition, slope normalized to DMSO (human α-thrombin; peptide 1.27E-04 uM): 98.6 and 95.2 and 97.6
Human alpha thrombin inhibition, slope normalized to DMSO (human α-thrombin; peptide 1.30E-01 uM): 95.9 and 91.0 and 95.3
Human alpha thrombin inhibition, slope normalized to DMSO (human α-thrombin; [4]): 25.3 and 29.1 and 30.1
Human alpha thrombin inhibition, slope normalized to DMSO (human α-thrombin; peptide 1.63E-02 uM): 109.1 and 94.1 and 96.6
Human alpha thrombin inhibition, slope normalized to DMSO (human α-thrombin; peptide 1.67E+01 uM): 56.0 and 55.9 and 56.8
Human alpha thrombin inhibition, slope normalized to DMSO (human α-thrombin; peptide 2.03E-03 uM): 98.0 and 93.9 and 96.6
Human alpha thrombin inhibition, slope normalized to DMSO (human α-thrombin; peptide 2.08E+00 uM): 93.5 and 81.6 and 87.4
Human alpha thrombin inhibition, slope normalized to DMSO (human α-thrombin; peptide 2.54E-04 uM): 96.9 and 93.2 and 95.5
Human alpha thrombin inhibition, slope normalized to DMSO (human α-thrombin; peptide 2.60E-01 uM): 93.6 and 91.3 and 95.4
Human alpha thrombin inhibition, slope normalized to DMSO (human α-thrombin; peptide 3.18E-05 uM): 97.0 and 94.8 and 95.7
Human alpha thrombin inhibition, slope normalized to DMSO (human α-thrombin; peptide 3.26E-02 uM): 97.9 and 92.8 and 96.6
Human alpha thrombin inhibition, slope normalized to DMSO (human α-thrombin; peptide 3.33E+01 uM): 44.0 and 43.7 and 42.6
Human alpha thrombin inhibition, slope normalized to DMSO (human α-thrombin; peptide 4.07E-03 uM): 98.5 and 94.3 and 98.3
Human alpha thrombin inhibition, slope normalized to DMSO (human α-thrombin; peptide 4.17E+00 uM): 81.7 and 78.5 and 82.6
Human alpha thrombin inhibition, slope normalized to DMSO (human α-thrombin; peptide 5.09E-04 uM): 98.7 and 85.0 and 98.3
Human alpha thrombin inhibition, slope normalized to DMSO (human α-thrombin; peptide 5.21E-01 uM): 102.0 and 91.0 and 92.1
Human alpha thrombin inhibition, slope normalized to DMSO (human α-thrombin; peptide 6.36E-05 uM): 94.5 and 96.0 and 100.7
Human alpha thrombin inhibition, slope normalized to DMSO (human α-thrombin; peptide 6.51E-02 uM): 96.7 and 92.1 and 95.5
Human alpha thrombin inhibition, slope normalized to DMSO (human α-thrombin; peptide 6.67E+01 uM): 31.6 and 30.0 and 31.3
Human alpha thrombin inhibition, slope normalized to DMSO (human α-thrombin; peptide 8.14E-03 uM): 98.1 and 93.7 and 96.2
Human alpha thrombin inhibition, slope normalized to DMSO (human α-thrombin; peptide 8.33E+00 uM): 74.6 and 70.2 and 71.4
Rat alpha thrombin inhibition, slope normalized to DMSO (rat α-thrombin; [4]): 11.3 and 13.8 and 8.3
Rat alpha thrombin inhibition, slope normalized to DMSO (rat α-thrombin; peptide 1.67E+01 uM): 29.0 and 30.7 and 41.4
Rat alpha thrombin inhibition, slope normalized to DMSO (rat α-thrombin; peptide 2.08E+00 uM): 79.8 and 81.7 and 85.5
Rat alpha thrombin inhibition, slope normalized to DMSO (rat α-thrombin; peptide 3.33E+01 uM): 17.9 and 19.2 and 22.6
Rat alpha thrombin inhibition, slope normalized to DMSO (rat α-thrombin; peptide 4.17E+00 uM): 59.7 and 62.6 and 71.9
Rat alpha thrombin inhibition, slope normalized to DMSO (rat α-thrombin; peptide 6.67E+01 uM): 10.8 and 11.8 and 26.2
Rat alpha thrombin inhibition, slope normalized to DMSO (rat α-thrombin; peptide 8.33E+00 uM): 44.9 and 46.7 and 59.3
SGF stability, Residual peptide Average (porcine pepsin): 97.83
SGF stability, Residual peptide (porcine pepsin): 97.70 and 100.05 and 95.74
remaining at 8 h (porcine pepsin): 98 ± 2%
remaining at 8 h [1]: 92 ± 9%
SIF stability, Residual peptide Average (porcine pancreatin): 91.77
SIF stability, Residual peptide (porcine pancreatin; single replicates R1-R3): 101.93 and 87.06 and 86.31
PAMPA permeability: % permeability [2]: 0.86 ± 0.09%
Papp at 50 μM [2]: 0.0575 ×10⁻⁶ cm/s
Permeability% Average [2]: 0.9%
Permeability% R1 [2]: 0.87%
Permeability% R3 [2]: 0.95%
microsomal CLint [3, 5]: 149 µL/min/mg
microsomal CLint [3, 6]: 98.2 µL/min/mg
microsomal CLint [3, 7]: 109 µL/min/mg
half-life [3, 8]: 9.3 min
half-life [3, 9]: 14.1 min
half-life [3, 10]: 12.7 min
half-life [3, 11]: 12.1 ± 2 min
microsomal CLint [3, 12]: 119 ± 22 µL/min/mg

C[C@@H]1NC(=O)[C@@H](NC(=O)c2ccc(Cl)s2)CNC(=O)CCSCc2cccc(n2)CSCCNC1=O [compound 18]
Human alpha thrombin inhibition, slope normalized to DMSO (human α-thrombin; peptide 1.02E-03 uM): 93.1 and 89.2 and 94.7
Human alpha thrombin inhibition, slope normalized to DMSO (human α-thrombin; peptide 1.04E+00 uM): 93.7 and 88.7 and 98.8
Human alpha thrombin inhibition, slope normalized to DMSO (human α-thrombin; peptide 1.27E-04 uM): 100.2 and 94.8 and 98.1
Human alpha thrombin inhibition, slope normalized to DMSO (human α-thrombin; peptide 1.30E-01 uM): 94.8 and 90.7 and 96.5
Human alpha thrombin inhibition, slope normalized to DMSO (human α-thrombin; [4]): 52.1 and 50.8 and 55.1
Human alpha thrombin inhibition, slope normalized to DMSO (human α-thrombin; peptide 1.63E-02 uM): 97.1 and 95.8 and 94.6
Human alpha thrombin inhibition, slope normalized to DMSO (human α-thrombin; peptide 1.67E+01 uM): 73.4 and 68.5 and 72.3
Human alpha thrombin inhibition, slope normalized to DMSO (human α-thrombin; peptide 2.03E-03 uM): 97.3 and 94.1 and 99.2
Human alpha thrombin inhibition, slope normalized to DMSO (human α-thrombin; peptide 2.08E+00 uM): 89.4 and 90.0 and 79.4
Human alpha thrombin inhibition, slope normalized to DMSO (human α-thrombin; peptide 2.54E-04 uM): 98.0 and 92.5 and 94.6
Human alpha thrombin inhibition, slope normalized to DMSO (human α-thrombin; peptide 2.60E-01 uM): 94.5 and 91.9 and 98.0
Human alpha thrombin inhibition, slope normalized to DMSO (human α-thrombin; peptide 3.18E-05 uM): 100.9 and 96.3 and 98.9
Human alpha thrombin inhibition, slope normalized to DMSO (human α-thrombin; peptide 3.26E-02 uM): 93.0 and 91.8 and 94.1
Human alpha thrombin inhibition, slope normalized to DMSO (human α-thrombin; peptide 3.33E+01 uM): 68.4 and 72.8 and 70.8
Human alpha thrombin inhibition, slope normalized to DMSO (human α-thrombin; peptide 4.07E-03 uM): 96.7 and 91.0 and 96.0
Human alpha thrombin inhibition, slope normalized to DMSO (human α-thrombin; peptide 4.17E+00 uM): 85.6 and 83.5 and 84.3
Human alpha thrombin inhibition, slope normalized to DMSO (human α-thrombin; peptide 5.09E-04 uM): 95.1 and 89.7 and 99.5
Human alpha thrombin inhibition, slope normalized to DMSO (human α-thrombin; peptide 5.21E-01 uM): 94.5 and 87.9 and 92.4
Human alpha thrombin inhibition, slope normalized to DMSO (human α-thrombin; peptide 6.36E-05 uM): 96.8 and 88.2 and 100.6
Human alpha thrombin inhibition, slope normalized to DMSO (human α-thrombin; peptide 6.51E-02 uM): 133.7 and 92.1 and 94.3
Human alpha thrombin inhibition, slope normalized to DMSO (human α-thrombin; peptide 6.67E+01 uM): 63.9 and 63.5 and 65.7
Human alpha thrombin inhibition, slope normalized to DMSO (human α-thrombin; peptide 8.14E-03 uM): 96.2 (2×) and 90.9
Human alpha thrombin inhibition, slope normalized to DMSO (human α-thrombin; peptide 8.33E+00 uM): 81.3 and 78.4 and 82.3
Rat alpha thrombin inhibition, slope normalized to DMSO (rat α-thrombin; [4]): 32.2 and 38.1 and 17.4
Rat alpha thrombin inhibition, slope normalized to DMSO (rat α-thrombin; peptide 1.67E+01 uM): 45.0 and 46.6 and 55.7
Rat alpha thrombin inhibition, slope normalized to DMSO (rat α-thrombin; peptide 2.08E+00 uM): 90.4 and 89.1 and 91.4
Rat alpha thrombin inhibition, slope normalized to DMSO (rat α-thrombin; peptide 3.33E+01 uM): 47.9 and 19.5
Rat alpha thrombin inhibition, slope normalized to DMSO (rat α-thrombin; peptide 4.17E+00 uM): 77.9 and 77.5 and 82.1
Rat alpha thrombin inhibition, slope normalized to DMSO (rat α-thrombin; peptide 6.67E+01 uM): 36.2 and 41.8
Rat alpha thrombin inhibition, slope normalized to DMSO (rat α-thrombin; peptide 8.33E+00 uM): 63.0 and 63.5 and 66.0
SGF stability, Residual peptide Average (porcine pepsin): 99.57
SGF stability, Residual peptide (porcine pepsin): 102.25 and 97.75 and 98.72
remaining at 8 h (porcine pepsin): 100 ± 2%
remaining at 8 h [1]: 99 ± 9%
SIF stability, Residual peptide Average (porcine pancreatin): 98.53
PAMPA permeability: % permeability [2]: 2.73 ± 1.02%
Papp at 50 μM [2]: 0.174 ×10⁻⁶ cm/s
Permeability% Average [2]: 2.7%
Permeability% R1 [2]: 2.77%
Permeability% R3 [2]: 1.69%
microsomal CLint [3, 5]: 117 µL/min/mg
microsomal CLint [3, 6]: 96.6 µL/min/mg
microsomal CLint [3, 7]: 95.7 µL/min/mg
half-life [3, 8]: 11.8 min
half-life [3, 9]: 14.3 min
half-life [3, 10]: 14.5 min
half-life [3, 11]: 13.5 ± 1.2 min
microsomal CLint [3, 12]: 103 ± 10 µL/min/mg

Source: PMC11062899, “De novo development of small cyclic peptides that are orally bioavailable” (Nature Chemical Biology, 2023)
